Test results as given in ChEMBL document CHEMBL5674860, “Optimized Dual-Glo Assay to identify co-culture-induced drug vulnerabilities in 3D CRC models” (2024).

What was measured:
Assay type in all cases: functional, Homo sapiens
Design in all cases: dose or concentration left out as unconfirmed
Colon cancer organoid [1] = assay: Optimized Dual-Glo assay to identify co-culture induced drug vulnerabilities using donated chemical probes and chemogenomics kinase set in O06 CRC organoid and F06 CAF mono and co-culture. […] Cell viability is reported both mono and co-culture models.
Colon cancer organoid [2] = assay: Optimized Dual-Glo assay to identify co-culture induced drug vulnerabilities using donated chemical probes and chemogenomics kinase set in O14 CRC organoid and F14 CAF mono and co-culture. […] Cell viability is reported both mono and co-culture models.
Colon cancer organoid [3] = assay: Optimized Dual-Glo assay to identify co-culture induced drug vulnerabilities using donated chemical probes and chemogenomics kinase set in O20 CRC organoid and F20 CAF mono and co-culture. […] Cell viability is reported both mono and co-culture models.
[4] = Culture type Co-Culture, Transduced with Lucferase2-P2A-EGFP lentivirus
[5] = Culture type Co-Culture, Transduced with Renilla-dsRed lentivirus
[6] = Culture type Mono-Culture, Transduced with Lucferase2-P2A-EGFP lentivirus
[7] = Culture type Mono-Culture, Transduced with Renilla-dsRed lentivirus

Row | SMILES | Cell Viability (Colon cancer organoid [1]; [4]) | Cell Viability (Colon cancer organoid [1]; [5]) | Cell Viability (Colon cancer organoid [1]; [6]) | Cell Viability (Colon cancer organoid [1]; [7]) | Cell Viability (Colon cancer organoid [2]; [4]) | Cell Viability (Colon cancer organoid [2]; [5]) | Cell Viability (Colon cancer organoid [2]; [6]) | Cell Viability (Colon cancer organoid [2]; [7]) | Cell Viability (Colon cancer organoid [3]; [4]) | Cell Viability (Colon cancer organoid [3]; [5]) | Cell Viability (Colon cancer organoid [3]; [6]) | Cell Viability (Colon cancer organoid [3]; [7])
1 | CC(C)[C@H](C(=O)Nc1ccc(C(=O)NO)cc1)c1ccccc1 [AR-42] | 8.004% | 640.047% | 17.2646% | 486.211% | 19.466% | 585.967% | 17.1608% | 305.591% | 13.9159% | 352.85% | 21.6913% | 192.04%
2 | COc1ccc2c(c1)O[C@H](c1ccc(OC)c(OC)c1)C[C@@H]2NC(=O)C1(c2ccc3c(c2)OC(F)(F)O3)CC1 [A-1596584] | 86.7173% | 88.6658% | 66.4869% | 108.119% | 97.6687% | 114.369% | 74.3649% | 92.2647% | 72.8626% | 142.746% | 90.2448% | 98.4012%
3 | C[C@H]1CC(=O)Nc2cc(C(=O)NCCC3CC3)ccc2N1C(=O)N1CC2CC2C1 (stereo partly drawn) | 115.835% | 132.849% | 119.799% | 120.051% | 72.2289% | 101.41% | 80.5063% | 95.2313% | 105.905% | 112.87% | 104.527% | 89.0255%
4 | CCN(Cc1ccc(Cl)cc1)c1ncc(C(=O)NCCCN2CCCC2=O)c(NC2CCCC2)n1 | 130.769% | 112.754% | 126.765% | 120.519% | 82.1387% | 108.641% | 123.72% | 100.116% | 67.2116% | 104.655% | 126.603% | 126.47%
5 | Cc1cc(C)cc(C(=O)NOCCCCCC(=O)NO)c1 | 13.8956% | 454.718% | 14.9602% | 431.4% | 50.8168% | 381.601% | 48.3088% | 262.893% | 15.3163% | 402.959% | 16.4949% | 194.272%
6 | CN(C)c1ncnc(-c2ccc3nc(Nc4cc(CN5CCN(C(=O)CC(F)(F)F)CC5)ccn4)[nH]c3c2)c1Cl [BAY-440] | 92.9994% | 174.385% | 85.2405% | 88.7418% | 103.771% | 112.238% | 114.79% | 113.849% | 123.006% | 109.622% | 117.784% | 126.413%
7 | Cc1ccc(NC(=O)Nc2cc(C(F)(F)F)ccc2F)cc1Nc1ccc2c(c1)NC(=O)/C2=C\c1ccc[nH]1 | 112.777% | 121.077% | 144.763% | 85.6075% | 100.84% | 80.7866% | 148.906% | 94.1932% | 98.8429% | 67.3177% | 149.041% | 99.6693%
8 | O=C(/C=C/N1C[C@H]2C[C@@H]1CN2c1ccccn1)c1ccccc1O | 122.112% | 121.159% | 115.481% | 98.9347% | 76.8483% | 107.425% | 87.3467% | 104.591% | 98.7098% | 109.392% | 120.989% | 80.1119%
9 | COc1ccc2c(c1)O[C@@H](c1ccc(OC)c(OC)c1)C[C@H]2NC(=O)C1(c2ccc3c(c2)OC(F)(F)O3)CC1 [A-1596586] | 95.9961% | 117.187% | 95.5945% | 101.185% | 96.097% | 118.297% | 94.5524% | 101.637% | 84.3805% | 101.93% | 87.5429% | 80.1817%
